Each compound was assayed against T1, α4β7 integrin interaction with MadCAM-1 (RPMI8866 cells) (Homo sapiens, UniProt P13612+P26010) (assay: α4β7 Integrin Cell Capture Assay). Settings: capture of α4β7 integrin expressing RPMI8866 cells on recombinant MadCAM-1 extracellular domain-coated plate; 0.5 mM MnCl2.
T1 construct: α4β7 integrin expressing cells; endogenous in cells; host or cells: RPMI8866 cells
T1 sequence (P13612 34-1032): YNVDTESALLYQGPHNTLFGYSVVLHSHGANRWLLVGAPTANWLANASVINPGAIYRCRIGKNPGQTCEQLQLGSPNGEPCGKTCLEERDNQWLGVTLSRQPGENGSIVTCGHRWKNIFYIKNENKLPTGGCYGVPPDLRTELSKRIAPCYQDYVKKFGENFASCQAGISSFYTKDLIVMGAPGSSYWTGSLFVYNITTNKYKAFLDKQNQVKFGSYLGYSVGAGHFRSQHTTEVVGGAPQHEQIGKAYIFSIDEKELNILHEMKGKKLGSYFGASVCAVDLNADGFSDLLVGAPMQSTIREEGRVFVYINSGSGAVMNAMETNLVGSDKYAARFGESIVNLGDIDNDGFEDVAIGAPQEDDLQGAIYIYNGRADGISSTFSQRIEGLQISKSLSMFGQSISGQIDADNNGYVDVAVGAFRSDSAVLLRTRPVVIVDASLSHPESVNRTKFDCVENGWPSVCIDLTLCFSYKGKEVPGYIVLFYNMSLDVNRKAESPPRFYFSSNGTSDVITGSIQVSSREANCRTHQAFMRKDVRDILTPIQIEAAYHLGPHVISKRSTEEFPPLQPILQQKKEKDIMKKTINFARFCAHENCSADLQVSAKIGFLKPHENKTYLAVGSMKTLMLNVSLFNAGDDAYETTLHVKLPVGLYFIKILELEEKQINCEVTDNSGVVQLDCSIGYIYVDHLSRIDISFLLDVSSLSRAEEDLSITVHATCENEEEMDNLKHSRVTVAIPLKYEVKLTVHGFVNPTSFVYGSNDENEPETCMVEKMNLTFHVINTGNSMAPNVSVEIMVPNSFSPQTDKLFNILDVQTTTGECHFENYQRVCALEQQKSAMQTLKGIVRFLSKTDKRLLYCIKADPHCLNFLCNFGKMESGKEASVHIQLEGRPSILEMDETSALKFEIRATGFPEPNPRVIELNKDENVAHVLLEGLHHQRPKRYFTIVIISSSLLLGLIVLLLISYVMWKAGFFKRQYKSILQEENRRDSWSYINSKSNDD
T1 sequence (P26010 20-798): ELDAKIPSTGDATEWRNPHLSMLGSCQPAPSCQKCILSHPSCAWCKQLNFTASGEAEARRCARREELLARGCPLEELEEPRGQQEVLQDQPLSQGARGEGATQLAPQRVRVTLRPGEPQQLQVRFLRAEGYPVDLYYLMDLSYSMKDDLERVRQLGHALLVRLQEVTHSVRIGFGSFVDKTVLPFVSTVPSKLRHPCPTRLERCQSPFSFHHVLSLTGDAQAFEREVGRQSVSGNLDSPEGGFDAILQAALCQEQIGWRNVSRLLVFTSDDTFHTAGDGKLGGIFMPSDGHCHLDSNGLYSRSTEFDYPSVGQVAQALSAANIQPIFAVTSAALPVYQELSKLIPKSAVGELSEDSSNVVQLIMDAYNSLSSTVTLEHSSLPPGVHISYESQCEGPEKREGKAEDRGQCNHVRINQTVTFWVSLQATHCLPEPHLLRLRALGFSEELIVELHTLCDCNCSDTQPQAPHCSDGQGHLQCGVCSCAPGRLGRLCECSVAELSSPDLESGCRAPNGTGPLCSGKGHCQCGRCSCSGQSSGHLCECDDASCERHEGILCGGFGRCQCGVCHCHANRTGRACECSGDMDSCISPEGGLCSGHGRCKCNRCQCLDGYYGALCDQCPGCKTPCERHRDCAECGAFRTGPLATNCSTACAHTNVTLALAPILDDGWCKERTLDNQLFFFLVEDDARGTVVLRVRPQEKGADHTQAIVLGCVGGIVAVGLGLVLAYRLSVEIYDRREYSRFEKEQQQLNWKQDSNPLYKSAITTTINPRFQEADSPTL
Type: cell-based
Protocol: The potency of inhibitors in preventing α4β7 integrin interaction with MadCAM-1 was measured by monitoring the capture of α4β7 integrin expressing cells on a recombinant MadCAM-1 extracellular domain-coated plate. 384-well plates (Corning 3702) were coated with MadCAM-1 extracellular domain by dispensing 20 μL of MAdCAM-1 at 1.0 μg/mL per well and incubating overnight at 4° C. The plates were then washed with PBS and blocked with 3% BSA for 2 hours before being washed again. RPMI8866 cells were spun down and re-suspended in assay medium (DMEM+0.5% FBS+0.5 mM MnCl2) at a density of 0.5×10^6 cells/mL. The cells were then dispensed (60 μL/well) to a 384-well plate (Greiner 781280) that was previously spotted with 60 nL of test compound per well. The plates were incubated at 37° C. for 1 hour. 50 μL of cells were transferred to the blocked, MadCAM-1-coated plates and incubated for 30 minutes at 37° C. 10 μL of 12% glutaraldehyde containing Hoechst 33342 (0.06 mg/mL) was added to the cells (2% glutaraldehyde and 0.01 mg/mL final concentrations). The plates were incubated for 90 minutes at room temperature. The plates were then washed 3 times with 70 μL of PBS per well and imaged on a Cellomics ArrayScan instrument. The cells that were bound to the plate were counted and plotted against the compound concentration to determine the EC50 of the test compounds.
With `CC[C@@H](Nc1cc(F)c(C(=O)N[C@@H](Cc2ccc(-c3c(C)n(C)c(=O)n(C)c3=O)c3c2CCCO3)C(=O)O)c(F)c1)C(F)(F)F` (single isomer, unassigned) [Example 55] the EC50 was 0.152 nM. Work on `Cn1c(=O)n(-c2ccc(C[C@H](NC(=O)c3c(F)cc(N4CCOC[C@@H]4C(F)(F)F)cc3F)C(=O)O)c3c2COC3)c(=O)c2ccncc21` [Example 182] yielded an EC50 of 0.277 nM. With `O=C1CCc2c(C[C@H](NC(=O)c3c(F)cccc3F)C(=O)O)ccc(-c3c(Cl)cc(F)cc3Cl)c2N1` [Example 103, (S)-3-(8-(2,6-dichloro-4-fluorophenyl)-2-oxo-1,2,3,4-tetrahydroquinolin-5-yl)-2-(2,6-difluorobenzamido)propanoic acid] the EC50 was 96 nM. With `CCc1nc(-c2ccc(C[C@H](NC(=O)c3c(F)cc(N4CCOC[C@@H]4C(F)(F)F)cc3F)C(=O)O)c3c2OCCC3)c(=O)n(C)c1CC` [Example 164] the EC50 was 0.482 nM. `Cn1c(=O)c(-c2ccc(C[C@H](NC(=O)c3c(F)cc(N4CCOC[C@@H]4C(F)(F)F)cc3F)C(=O)O)c3c2OCCC3)cc2ccccc21` [Example 32, (S)-2-(2,6-difluoro-4-((R)-3-(trifluoromethyl)morpholino)benzamido)-3-(8-(1-methyl-2-oxo-1,2-dihydroquinolin-3-yl)chroman-5-yl)propanoic acid] showed an EC50 of 1.78 nM. `Cc1cc(N2CCOC[C@@H]2C(F)(F)F)cc(F)c1C(=O)N[C@@H](Cc1ccc(-c2c(C(F)(F)F)cc(C)n(C)c2=O)c2c1CCCO2)C(=O)O` [Example 135] showed an EC50 of 0.094 nM. With `Cc1nc(-c2ccc(C[C@H](NC(=O)c3c(F)cc(N4CCOC[C@@H]4C(F)(F)F)cc3F)C(=O)O)c3c2OCCO3)c(=O)n(C)c1C` [Example 175] the EC50 was 0.205 nM. In the case of `Cc1cc(N2CCOC3(CC3)C2)cc(F)c1C(=O)N[C@@H](Cc1ccc(-c2nc(C)c(C)n(C)c2=O)c2c1CCCO2)C(=O)O` [Example 139], the EC50 is reported as 2 nM. `Cc1cc(N2CCOC[C@@H]2C(F)(F)F)cc(F)c1C(=O)N[C@@H](Cc1ccc(-c2cc(N(C)C)c(C)n(C)c2=O)c2c1CCCO2)C(=O)O` [Example 147] gave an EC50 of 2.42 nM. Work on `Cc1nc(C)n(C)c(=O)c1-c1ccc(C[C@H](NC(=O)c2c(F)cc(N3CCOC[C@@H]3C(F)(F)F)cc2F)C(=O)O)c2c1COC2` [Example 185] yielded an EC50 of 0.282 nM. With `Cc1nc(-c2ccc(C[C@@H](C(=O)O)N(C)C(=O)c3c(F)cc(N4CCOC[C@@H]4C(F)(F)F)cc3F)c3c2OCCC3)c(=O)n(C)c1C` [Example 125] the EC50 was 94.9 nM. Work on `O=C(N[C@@H](Cc1ccc(-c2cccc3c2OCCC3)c2c1CCCO2)C(=O)O)c1c(Cl)cccc1Cl` [Example 67, (S)-3-([8,8′-bichroman]-5-yl)-2-(2,6-dichlorobenzamido)propanoic acid] yielded an EC50 of 40.9 nM. For `Cc1cc(N2CCOC[C@@H]2C(F)(F)F)cc(F)c1C(=O)N[C@@H](Cc1ccc(-c2c(C)nc(C)n(C)c2=O)c2c1CCCO2)C(=O)O` (atropisomer, axis not shown) [Example 119], the EC50 was 0.089 nM. `CCOCc1cc(OC)c(-c2ccc(C[C@H](NC(=O)c3c(F)cc(NS(=O)(=O)c4ccc(-c5ccnc(F)c5)cc4)cc3F)C(=O)O)c3c2CCCO3)c(OC)c1` [Example 100, (S)-2-(2,6-difluoro-4-((4-(2-fluoropyridin-4-yl)phenyl)sulfonamido)benzamido)-3-(5-(4-(ethoxymethyl)-2,6-dimethoxyphenyl)chroman-8-yl)propanoic acid] showed an EC50 of 1.67 nM. Compound `Cc1c(-c2ccc(C[C@H](NC(=O)c3c(Cl)cccc3Cl)C(=O)O)c3c2OCCC3)c(=O)n(C)c2ccccc12` (single isomer, unassigned) [Example 61] has an EC50 of 2.29 nM. `N#Cc1ccc(-c2ccc(C[C@H](NC(=O)c3c(F)cccc3F)C(=O)O)c3c2OCCC3)c(Cl)c1` [Example 72, (S)-3-(8-(2-chloro-4-cyanophenyl)chroman-5-yl)-2-(2,6-difluorobenzamido)propanoic acid] showed an EC50 of 53.3 nM.

From patent US20220226337A1 (Gilead Sciences, Inc., priority 2018, published 2022)
